Laboratory results as given in patent EP2050758A1, “New polypeptides and uses thereof in cancer therapy” (INSTITUT NATIONAL DE LA SANTE ET DE LA RECHERCHE MEDICALE …, priority 2007, dated 2009).

Tests used:
[1] = test system: ATPase domain of HSP70; conditions: MAMELAK & LINGWOOD, J. Biol. Chem. 2001; cited from earlier work
[2] = test system: B16F10 melanoma cells; assay: Tumor growth of aptamer-expressing B16F10 cells injected subcutaneously into syngeneic mice; assay type: in vivo, C57/B16 mice; conditions: mice bearing control tumors (wt B16F10 and B16F10-A0), cisplatin 10 mg/kg
Excerpt: To determine whether the chemosensitizing effect of A8 and A18 aptamers observed in vitro was also detected in vivo, mouse B16F10 melanoma cells were stably transfected with the aptamer expression vectors (A8, A18 and, as a control, A0). Stably transfected cells were selected using G418 (SIGMA) according to the manufacturer's instruction.
Exponentially growing B16F10 cells (wild type and aptamers-transfected) were harvested, washed in PBS, and resuspended in RPMI medium without foetal bovine serum (FBS) to a concentration of 2x10^5 B16F10 cells in 100 µl. B16F10 cells were then injected subcutaneously into the right side of syngeneic C57/B16 mice (9 mice/group). Next, some mice bearing B16F10-A0, B16F10-A8 or B16F10-A18 tumors were treated with cisplatin (10 mg/kg), given intraperitonealy as a single dose at day 6 after tumor cells injection. Tumor volume was evaluated for all mice every two days, using a caliper to measure two perpendicular diameters.

Question: Which “binding to the ATPase domain of HSP70” value [1] does the source give for 3'-sulfogalactosyl ceramide [SGC] here?
Answer: Its value is “known to bind”.

Question: For 3'-sulfogalactosylglycerolipid [SGG], which “binding to the ATPase domain of HSP70” value [1] is on record?
Answer: Its value is “known to bind”.

Question: Which “effect of cisplatin treatment on the size of the tumors” value [2] does the source give for `N.N.[Cl][Pt][Cl]` [cisplatin] here?
Answer: The value was “slightly reduced the size of the tumors”.
